Measured values as given in ChEMBL document CHEMBL5523751, “Discovery of Novel Diaryl-Substituted Fused Heterocycles Targeting Katanin and Tubulin with Potent Antitumor and Antimultidrug Resistance Efficacy” (J Med Chem, 2024).
Calls of active or inactive are those of the source. The calls are words filed in the database; no cut-off is given here.

How the values were obtained:
[1] = Tmax in mouse at 15 mg/kg, po measured upto 24 hrs by LC-MS/MS analysis; format: ADME, organism-based; conditions: in vivo
[2] = tested on: HCT-116; test: Antiproliferative activity against human HCT-116 cells assessed as inhibition of cell growth measured after 48 hrs by MTT assay; format: functional, cell-based; conditions: HCT-116, 48 h
[3] = tested on: MCF7; test: Induction of apoptosis in human MCF7 cells assessed as viable cells at 20 nM measured after 48 hrs by annexin-FITC and propidium iodide staining based flow cytometry analysis (reference value: 94.69%); format: functional; conditions: read-out: Activity
[4] = tested on: A549/TR; test: Antiproliferative activity against paclitaxel resistant human A549/Taxol cells assessed as inhibition of cell growth measured after 48 hrs by MTT assay; format: functional, cell-based
[5] = Toxicity in Balb/C nude mouse xenografted with A549/Taxol assessed as effect on spleen at 15 mg/kg, ip measured after 14 days by H and E staining based analysis; format: organism-based, A549/TR; conditions: in vivo, 336 h, time 14 day
[6] = AUC (0 to infinity) in mouse at 3 mg/kg, iv measured upto 24 hrs by LC-MS/MS analysis; format: ADME, organism-based; conditions: in vivo
[7] = tested on: MCF7; test: Upregulation of CDK1 expression level in human MCF7 cells at 1 to 10 nM by Western blot analysis; format: functional, cell-based; conditions: dose 1-10 nM
[8] = tested on: A2780/Taxol; test: cells; conditions: Homo sapiens, 48 h
[9] = tested on: MCF7; test: Induction of apoptosis in human MCF7 cells assessed as upregulation of PARP-1 protein level by Western blot analysis; format: functional, cell-based; conditions: dose 10-40 nM
[10] = Half life in mouse at 15 mg/kg, po measured upto 24 hrs by LC-MS/MS analysis; format: ADME, organism-based; conditions: in vivo
[11] = Resistance index, ratio of IC50 for antiproliferative activity against paclitaxel resistant human A2780/Taxol cells to IC50 for antiproliferative activity against human A2780 cells; format: functional
[12] = tested on: MCF7; test: Induction of apoptosis in human MCF7 cells assessed as late apoptotic cells at 40 nM measured after 48 hrs by annexin-FITC and propidium iodide staining based flow cytometry analysis (reference value: 3.93%); format: functional
[13] = AUC (0 to infinity) in mouse at 15 mg/kg, po measured upto 24 hrs by LC-MS/MS analysis; format: ADME, organism-based; conditions: in vivo
[14] = Resistance index, ratio of IC50 for antiproliferative activity against cisplatin resistant human A2780/CDDP cells to IC50 for antiproliferative activity against human A2780 cells; format: functional
[15] = Toxicity in Balb/C nude mouse xenografted with A549/Taxol assessed as effect on body weight at 15 mg/kg, ip measured after 14 days by H and E staining based analysis; format: organism-based, A549/TR; conditions: in vivo, 336 h, time 14 day
[16] = Antiproliferative activity against human HUVEC cells assessed as cell viability at 30 to 60 nM measured after 6 hrs by MTT assay relative to control; format: toxicity, cell-based; conditions: dose 30-60 nM, read-out: Activity
[17] = Tmax in mouse at 3 mg/kg, iv measured upto 24 hrs by LC-MS/MS analysis; format: ADME, organism-based; conditions: in vivo
[18] = Toxicity in Balb/C nude mouse assessed as abnormalities in heart at 7.5 to 15 mg/kg, ip measured after 14 days by H and E staining based analysis; format: organism-based; conditions: in vivo, 336 h, dose 7.5-15 mg/kg, time 14 day
[19] = tested on: MCF7; test: Induction of apoptosis in human MCF7 cells assessed as early apoptotic cells at 40 nM measured after 48 hrs by annexin-FITC and propidium iodide staining based flow cytometry analysis (reference value: 1.20%); format: functional
[20] = tested on: MDA-MB-231; test: Antitumor activity against human MDA-MB-231 cells xenografted in BALB/c nude mouse model assessed as inhibition of tumor growth weight administered as IP dose measured after 14 days; format: functional; conditions: dose 7.5-15 mg/kg, time 14.0 day
[21] = Toxicity in Balb/C nude mouse assessed as abnormalities in lung at 7.5 to 15 mg/kg, ip measured after 14 days by H and E staining based analysis; format: organism-based; conditions: in vivo, 336 h, dose 7.5-15 mg/kg, time 14 day
[22] = target: Katanin p60 ATPase-containing subunit A1 (Homo sapiens, UniProt O75449); test: Binding affinity to C-terminal human Katanin p60 (111 to 491 residues) expressed in Escherichia coli Rosetta (DE3) assessed as dissociation constant by SPR analysis
[23] = Toxicity in Balb/C nude mouse assessed as abnormalities in kidney at 7.5 to 15 mg/kg, ip measured after 14 days by H and E staining based analysis; format: organism-based; conditions: in vivo, 336 h, dose 7.5-15 mg/kg, time 14 day
[24] = tested on: MDA-MB-231; test: Downregulation of vimentin expression in human MDA-MB-231 cells at 5 to 40 nM by Western blot analysis; format: functional, cell-based; conditions: dose 5-40 nM
[25] = Toxicity in Balb/C nude mouse xenografted with A549/Taxol assessed as adverse effect at 15 mg/kg, ip measured after 14 days; format: organism-based, A549/TR; conditions: in vivo, 336 h, time 14 day
[26] = Acute toxicity in ICR mouse assessed as animal death at 50 mg/kg, ip measured after upto 14 days; format: organism-based; conditions: in vivo, 336 h, time < 14 day
[27] = tested on: A2780; test: Antiproliferative activity against human A2780 cells assessed as inhibition of cell growth measured after 48 hrs by MTT assay; format: functional, cell-based; conditions: A2780, 48 h
[28] = Toxicity in Balb/C nude mouse assessed as abnormalities in spleen at 7.5 to 15 mg/kg, ip measured after 14 days by H and E staining based analysis; format: organism-based; conditions: in vivo, 336 h, dose 7.5-15 mg/kg, time 14 day
[29] = tested on: A549/TR; test: Antitumor activity against paclitaxel resistant human A549/Taxol cells xenografted in BALB/c nude mouse model assessed as inhibition of tumor growth at 15 mg/kg, ip measured after 14 days relative to control; format: functional; set-up: scale not given: the % may be the effect or the level left; conditions: time 14 day
[30] = Acute toxicity in ICR mouse assessed as survival rate at 100 mg/kg, ip measured after 14 days relative to control; format: organism-based; conditions: in vivo, time 14 day

Sequence of Katanin p60 ATPase-containing subunit A1 (O75449 whole entry, the tested form may be a part): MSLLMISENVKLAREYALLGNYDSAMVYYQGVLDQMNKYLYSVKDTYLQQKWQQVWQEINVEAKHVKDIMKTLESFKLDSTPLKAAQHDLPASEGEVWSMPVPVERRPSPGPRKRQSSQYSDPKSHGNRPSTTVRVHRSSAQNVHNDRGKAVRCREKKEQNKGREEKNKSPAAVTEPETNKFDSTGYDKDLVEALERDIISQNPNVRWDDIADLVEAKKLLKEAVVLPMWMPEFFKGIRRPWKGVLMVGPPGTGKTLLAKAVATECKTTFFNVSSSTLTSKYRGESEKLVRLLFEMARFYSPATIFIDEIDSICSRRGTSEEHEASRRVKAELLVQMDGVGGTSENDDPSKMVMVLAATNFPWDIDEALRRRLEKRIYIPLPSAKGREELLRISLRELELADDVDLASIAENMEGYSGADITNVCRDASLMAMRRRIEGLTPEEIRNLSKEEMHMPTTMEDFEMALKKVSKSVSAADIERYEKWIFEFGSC

Q: What does the source list for `COc1cc(-n2cnc3ccc(-c4ccc(C)c(N)c4)nc32)cc(OC)c1OC`?
A: Tmax [1]: 8.4 min; IC50 [2]: 3 nM; viability at 0.02 µM [3]: 46.6%; IC50 [4]: 1.6 nM; Activity [5]: Non-Toxic; AUC(0-inf) [6]: 668 ng·h/mL; Activity [7]: Active; IC50 [8]: 4.8 nM; Activity [9]: Dose-Dependent Effect; half-life [10]: 115 min; Ratio IC50 [11]: 1.54; Activity [12]: 27.01%; AUC(0-inf) [13]: 1340 ng·h/mL; Ratio IC50 [14]: 1.35; Activity [15]: Non-Toxic; viability at 6 h, 0.06 µM [16]: > 90%; Tmax [17]: 4.8 min; Activity [18]: Non-Toxic; Activity [19]: 32.55%; Activity [20]: Dose-Dependent Effect; Activity [21]: Non-Toxic; Kd [22]: > 50000 nM; Activity [23]: Non-Toxic; Activity [24]: Active; Activity [25]: Non-Toxic; Activity [26]: Non-Toxic; IC50 [27]: 3 nM; Activity [28]: Non-Toxic; Activity [29]: 74%; survival at 336 h [30]: 80%
